In patent publication US20030148954A1, “Agents and methods for modulating activator protein-1-mediated cellular processes” (Wisconsin Alumni Research Foundation, priority 2001, published 2003):

Tests used:
IκBα = experiment: Northern blotting of IκBα transcripts in K562-Babe and K562-NIC-1 cells; format: cell-based, human; conditions: 5 nM TPA 12 h, stably transfected NIC-1
Experimental: (§1) Stable Transfection—K562 cells were stably transfected by electroporation with a Bio-Rad Gene pulser electroporator. Cells (5×10^6) were washed with ice-cold PBS, resuspended in 0.5 ml of ice-cold PBS, mixed with 5 μg linearized plasmid DNA, and subjected to electroporation (960 microfarad; 220 V) in a 0.4 cm-wide electroporation cuvette (BTX). pBabe and pNIC-1 were linearized with NotI. Cells were then added to 20 ml of complete IMEM, grown for 48 h, and diluted in complete IMEM containing 1.5 μg/ml puromycin (pools of K562-Babe and K562-NIC-1 cells). Stably transfected cells were analyzed for erythroid differentiation as soon as the pools were generated by benzidine staining to reduce the probability of phenotypic changes that may result from prolonged growth.
(§2) Northern Blotting—Total RNA from K562-Babe and K562-NIC-1 cells was extracted with Triazol (Life Technologies, Inc.). Ten μg of RNA per sample was electrophoresed on a 1% agarose, 6.6% formaldehyde gel and then transferred overnight to a Magnacharge nylon membrane (Osmonics). RNA was cross-linked to the membrane by UV irradiation. Membranes were prehybridized for 30 min at 60° C. in ExpressHyb hybridization solution (Clontech). […] Radioactivity was quantitated by PhosphorImager analysis with ImageQuant software (Molecular Dynamics).

MMP1 = experiment: Northern blotting of MMP1 transcripts in K562-Babe and K562-NIC-1 cells; format: cell-based, human; conditions: 5 nM TPA 12 h, stably transfected NIC-1
Experimental: as §1, §2

CBF1 = biological target: T1, CBF1 (Homo sapiens, UniProt Q06330); experiment: Coimmunoprecipitation of CBF1 with NIC-1 from K562 cell lysates; format: binding; conditions: K562 cells, retroviral infection
T1 construct: endogenous in cells; host or cells: K562 cells retrovirally infected with NIC-1 expression vectors
Experimental: Retroviral Infection—Modified 293 human embryonic kidney cells were grown in 10 cm dishes until they were subconfluent and were cotransfected with plasmid DNA (15 μg) and pMD.G (6 μg) by the calcium phosphate transfection method as described previously (55). The medium was changed once after 10 h of transfection to remove the calcium phosphate. The pMD.G expression vector encodes the viral envelope protein VSV-G. The modified 293 cells were previously stably transfected with pol and gag genes (gift of Shigeki Miyamoto, University of Wisconsin Medical School). After additional incubation for 12 h, the medium was removed and K562 cells (10 ml, 3×10^5/ml) were added with polybrene (4 μg/ml) in complete IMEM and incubated for 36 h. The infected cells were separated from adherent 293 cells and then subjected to immunoprecipitation analysis.
Western Blotting—To detect the expression of Myc-tagged wild type NIC-1 and NIC-1 mutants, whole cell lysates were prepared in Nonidet P-40 lysis buffer (50 mM Hepes, pH 7.4, 1 mM EDTA, 150 mM NaCl, 10% glycerol, 1% Nonidet P-40, 2 mM DTT, 0.2 mM phenylmethanesulfonyl fluoride, and 20 μg/ml leupeptin). […] The proteins were transferred to an Immobilon P membrane (Millipore) and detected by immunoblotting with the anti-Myc tag monoclonal antibody 9E10. CBF1 was detected by immunoblotting with anti-CBF1 polyclonal antisera (Lam & Bresnick, unpublished data).

CSL (CBF1) = experiment: CSL-dependent luciferase reporter, transient transfection of HeLa cells; format: cell-based, human
Excerpt: Plasmids—The pBabe-NIC-1 (pNIC-1) expression vector encoding constitutively active Notch-1 (NIC-1) was described previously (36,37,51). This vector was derived from the pBabe-puro retroviral vector and includes a cDNA sequence encoding amino acids 1759-2556 of human Notch-1 with a Myc tag fused to its carboxyl terminus. Human NIC-1 deletion mutants were generated by PCR using a full-length human Notch-1 expression vector as the template. The Notch-dependent reporter plasmid containing four CBF1 binding sites and an simian virus 40 promoter fused to luciferase (p4×CBF1luc) was described previously (52). The AP-1 reporter plasmid (p1×AP1luc) containing a collagenase promoter fragment (−73/+67) with a single AP-1 binding site in the luciferase reporter vector pGL2-basic (Promega) was described previously (53). The NF-κB reporter plasmid (p3×κBluc) containing three NF-κB binding sites and a minimal promoter fused to luciferase was a kind gift of Dr. Shigeki Miyamoto (University of Wisconsin Medical School). […]
For each transfection, cells were incubated for 26 h after transfection and then treated with TPA (final concentration: 5 nM) or the vehicle (DMSO). […] Luciferase activity was normalized by the protein content of the lysates, determined by Bradford assay using γ-globulin as a standard.

T1 sequence (Q06330 whole entry): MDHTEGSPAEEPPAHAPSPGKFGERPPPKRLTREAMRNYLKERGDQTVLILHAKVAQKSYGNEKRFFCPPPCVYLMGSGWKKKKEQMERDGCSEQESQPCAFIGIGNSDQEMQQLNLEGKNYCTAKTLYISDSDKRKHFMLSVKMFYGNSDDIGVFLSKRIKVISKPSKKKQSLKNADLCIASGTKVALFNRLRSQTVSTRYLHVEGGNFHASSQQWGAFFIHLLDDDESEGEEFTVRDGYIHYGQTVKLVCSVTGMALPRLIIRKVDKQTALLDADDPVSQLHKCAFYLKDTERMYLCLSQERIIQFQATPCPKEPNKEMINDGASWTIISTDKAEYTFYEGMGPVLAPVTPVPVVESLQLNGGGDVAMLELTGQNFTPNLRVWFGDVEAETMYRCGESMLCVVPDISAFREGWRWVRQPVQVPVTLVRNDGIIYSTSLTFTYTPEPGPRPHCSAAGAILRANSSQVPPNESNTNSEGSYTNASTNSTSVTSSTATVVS

For “NIC-1: constitutively active Notch-1 intracellular domain, amino acids 1759-2556 of human Notch-1 with carboxyl-terminal Myc tag, expressed from pBabe-NIC-1”, the “effect on TPA induction of IκBα transcripts” value (IκBα) was “no effect”, the “TPA induction of MMP1 transcript levels in K562-NIC-1 versus K562-Babe cells” value (MMP1) was “considerably lower” and the “recovery of CBF1 in anti-NIC-1 immunoprecipitates” value (CBF1) was “coimmunoprecipitated”. For the same substance, the “activation of CSL-dependent reporter activity” value (CSL (CBF1)) was “strongly activated”.
